US10227331B2 (priority 2015, dated 2019)

Columns and labels:
[1] = biological target: IMP-1 (Serratia marcescens, UniProt P52699); assay: biochemical; type: biochemical; conditions: CCF2-FA substrate, 2 hours at 25° C; read-out: IMP-1 IC50
Outline: (§1)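 Enzyme activity was measured by fluorescence using CCF2-FA, a cephalosporin-linked 7-hydroxycoumarin/fluorescein substrate, with inhibitor, metallo-β-lactamase and substrate incubated together for 2 hours at 25° C. IC50 came from a 4-parameter fit of inhibition versus log inhibitor concentration.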

[2] = biological target: NDM-1 (Klebsiella pneumoniae, UniProt C7C422); assay: biochemical; type: biochemical; conditions: CCF2-FA substrate, 2 hours at 25° C; read-out: NDM-1 IC50
NDM-1, sequence (C7C422 whole entry, looked up, species assumed): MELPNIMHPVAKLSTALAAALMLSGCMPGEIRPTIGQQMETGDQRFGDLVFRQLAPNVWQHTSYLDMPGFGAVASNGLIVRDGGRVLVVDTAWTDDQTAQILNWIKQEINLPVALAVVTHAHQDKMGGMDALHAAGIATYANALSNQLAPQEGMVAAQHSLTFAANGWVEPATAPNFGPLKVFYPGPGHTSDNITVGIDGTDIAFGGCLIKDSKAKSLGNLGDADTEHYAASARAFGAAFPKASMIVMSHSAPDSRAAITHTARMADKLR
Outline: as §1

[3] = biological target: VIM-1 (Pseudomonas aeruginosa (strain ATCC 15692 / DSM 22644 / CIP 104116 / JCM 14847 / LMG 12228 / 1C / PRS 101 / PAO1), UniProt A0A0F7KYQ8); assay: biochemical; conditions: CCF2-FA substrate, 2 hours at 25° C
Outline: as §1

[4] = tested on: Escherichia coli expressing NDM-1 (CLB30005, CLB30016); type: cell-based; conditions: with imipenem 1 μg/ml, 95% inhibition of bacterial growth
Outline: (§2)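 Restoration of imipenem susceptibility (1 μg/ml imipenem) was judged by absorbance after 22–24 h at 35° C. Test compound was added to bacteria suspended 1:100 in 1.1× CAMHB from overnight blood-agar cultures.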

[5] = tested on: Klebsiella pneumoniae expressing VIM-1 (IHMA599644); type: cell-based; conditions: with imipenem 1 μg/ml, 95% inhibition of bacterial growth
Outline: as §2

[6] = tested on: Serratia marcescens expressing IMP-1 (CL5741); type: cell-based; conditions: with imipenem 1 μg/ml, 95% inhibition of bacterial growth
Outline: as §2

[7] = tested on: P. aeruginosa expressing IMP-1, efflux+ (MB9798); type: cell-based, Pseudomonas aeruginosa; conditions: for P. aeruginosa expressing IMP-1, efflux+ (MB9798) MITC95: imipenem at 2 μg/mL, in the presence of a class A, C, D serine β-lactamase inhibitor closely related to relebactam; for Efflux ratio: ratio MITC95 PA_9798/MITC95 PA_9799
Excerpt: (§3) The strain background is Pseudomonas aeruginosa PAO1.

[8] = tested on: P. aeruginosa expressing IMP-1, efflux− (MB9799); assay: Efflux: concentration of MBL inhibitor which restores susceptibility to imipenem; type: cell-based, Pseudomonas aeruginosa; conditions: imipenem at 2 μg/mL, in the presence of a class A, C, D serine β-lactamase inhibitor closely related to relebactam
Excerpt: as §3

IMP-1, sequence (P52699 whole entry, looked up, species assumed): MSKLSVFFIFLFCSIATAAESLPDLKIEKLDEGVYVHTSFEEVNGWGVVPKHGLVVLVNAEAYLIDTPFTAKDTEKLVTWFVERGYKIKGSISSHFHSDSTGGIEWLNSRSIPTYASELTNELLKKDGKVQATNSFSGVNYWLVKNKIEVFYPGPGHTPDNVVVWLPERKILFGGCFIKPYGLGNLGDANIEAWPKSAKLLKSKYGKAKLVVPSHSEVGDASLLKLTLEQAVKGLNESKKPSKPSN

Row | SMILES | IC50 [1] | IC50 [2] | IC50 [3] | Escherichia coli expressing NDM-1 (CLB30016) MITC95 [4] | Klebsiella pneumoniae expressing VIM-1 (IHMA599644) MITC95 [5] | Serratia marcescens expressing IMP-1 (CL5741) MITC95 [6] | P. aeruginosa expressing IMP-1, efflux+ (MB9798) MITC95 [7] | Efflux ratio [7] | P. aeruginosa expressing IMP-1, efflux− (MB9799) MITC95 [8] | Escherichia coli MITC95 ([4]; NDM-1 (CLB30016)) | Klebsiella pneumoniae MITC95 ([5]; VIM-1 (IHMA599644)) | Serratia marcescens MITC95 ([6]; IMP-1 (CL5741))
1 | Cc1ccc2cccc(-c3ccc(S(=O)(=O)C4CNC4)c(S(N)(=O)=O)c3-c3nnn[nH]3)c2n1.O=C(O)C(F)(F)F [Example 122, 3-((4-(2-methylquinolin-8-yl)-2-sulfamoyl-3-(1H-tetrazol-5-yl)phenyl)sulfonyl)azetidin-1-ium 2,2,2-trifluoroacetate] | 0.57 nM | 0.155 nM | 0.324 nM | 3.125 µM | 6.25 µM | 3.125 µM | 6.25 µM | 4.00 | 1.563 µM |  |  | 
2 | NS(=O)(=O)c1c(Sc2ccncc2)ccc(-c2ccc(C3CCNCC3)cc2)c1-c1nn[nH]n1 [Example 242, 4′-(Piperidin-4-yl)-4-(pyridin-4-ylthio)-2-(2H-tetrazol-5-yl)-[1,1′-biphenyl]-3-sulfonamide] | 3.34 nM | 4.01 nM | 7.47 nM | 12.5 µM | 50 µM | 6.25 µM | 50 µM | 31.99 | 1.563 µM |  |  | 
3 | NS(=O)(=O)c1c(S(=O)(=O)C2CNC2)ccc([C@H]2CC[C@H](N)CC2)c1-c1nnn[nH]1 [Example 212, 3-((1r,4r)-4-aminocyclohexyl)-6-(azetidin-3-ylsulfonyl)-2-(1H-tetrazol-5-yl) benzenesulfonamide] | 30.2 nM | 11.3 nM | 0.864 nM | 0.7813 µM | 1.563 µM | 1.563 µM | 1.563 µM | 2.00 | 0.7813 µM |  |  | 
4 | NCCS(=O)(=O)c1ccc(-c2cccc3cc(N)ncc23)c(-c2nn[nH]n2)c1S(N)(=O)=O [Example 73, 6-(2-aminoethylsulfonyl)-3-(3-aminoisoquinolin-8-yl)-2-(2H-tetrazol-5-yl)benzenesulfonamide] | 0.214 nM | 0.109 nM | 0.241 nM | 0.7813 µM | 3.125 µM | 3.125 µM | 1.563 µM | 1.00 | 1.563 µM |  |  | 
5 | Nc1nc2cccc(-c3ccc(S(=O)(=O)[C@H]4CC[C@@H](N)CC4)c(S(N)(=O)=O)c3-c3nn[nH]n3)c2[nH]1 [Example 177, 3-(2-amino-3H-benzo[d]imidazol-4-yl)-6-((1s,4s)-4-aminocyclohexylsulfonyl)-2-(2H-tetrazol-5-yl)benzenesulfonamide] | 1.35 nM | 0.264 nM | 0.293 nM | 0.7813 µM | 1.563 µM | 0.7813 µM | 0.7813 µM | 1.00 | 0.7813 µM |  |  | 
6 | NCCS(=O)(=O)c1ccc(-c2cccc(C(=O)N[C@@H]3CCNC3)c2N)c(-c2nn[nH]n2)c1S(N)(=O)=O [Example 377, (R)-2-amino-4′-((2-aminoethyl)sulfonyl)-N-(pyrrolidin-3-yl)-3′-sulfamoyl-2′-(2H-tetrazol-5-yl)-[1,1′-biphenyl]-3-carboxamide] | 1.88 nM | 1.77 nM | 0.671 nM |  |  |  | 3.125 µM | 2.00 | 1.563 µM | 1.563 µM | 3.125 µM | 1.563 µM
